# Tests used:
# [1] = tested on: primary human memory T cells (CD4+ CD45RO+); test: IL-17 and IFNγ expression by human memory T cells co-cultured with CD14+ monocytes; format: cell-based; conditions: 100 nM HF, 6 days
# Protocol: FIG. 2F is a set of FACS analyses of purified primary human memory T cells (CD4^+ CD45RO^+) activated in co-culture with CD14^+ monocytes and treated with DMSO, 100 nM HF or 100 nM MAZ1310. T cells were expanded for 6 days and intracellular cytokine expression was determined following restimulation with PMA plus ionomycin.
# Primary murine T and B cells were purified by cell sorting. CD4^+ CD25^− T cells were positively selected using CD4 dynabeads and detachabeads (Dynal—Oslo, Norway) per manufacturers instructions followed by nTreg depletion using a CD25 microbead kit (Miltenyi biotech—Auburn, Calif.). Naïve (CD4^+ CD62Lhi CD44lo Foxp3gfp- or CD4^+ CD62Lhi CD44lo CD25^−) T cells were purified from Foxp3gfp or Foxp3ko mice, respectively, by FACS sorting. CD8^+ T cells or B cells were isolated from CD4^− fractions using CD8 negative isolation kit (Dynal) or CD43 negative isolation kit (Miltenyi biotech), respectively. Resting human CD4^+ T cells were isolated from PBMC of healthy human donors using Dynal CD4 Positive Isolation Kit (Invitrogen—Carlsbad, Calif.) as previously described (Sundrud et al., Blood 106:3440, 2005). CD4^+ cells were further purified to obtain memory T cells by staining with PE-conjugated anti-human CD45RO-PE antibodies (BD Biosciences), and sorting on a FACSAria cytometer (BD Biosciences). Following purification, cells were greater than 99% CD4^+ CD45RO^+. […]
# [2] = tested on: mouse embryo fibroblasts (MEFs); test: ECM gene expression and protein production in MEFs; format: cell-based
# Protocol: FIG. 26C. Proline rescues both HF stimulated and HF inhibited gene expression. MEFs were treated with or without HF (50 nM) and/or Proline (2 mM) for 4 hours (CHOP, S100A4) or 24 hours (CoLIA1, ColIA2). DMSO was used as vehicle control. Changes in mRNA levels are expressed as fold-change relative to control and normalized to expression of TBP. Error bars reflect standard deviation of determinations from plates of cells treated in triplicate, confidence interval (p-value) for the effect of HF alone versus HF+Pro was determined using a two-tailed Student's t test. Data are representative of two separate experiments.
# FIG. 26D. HF-inhibition of collagen production is rescued by proline and doesn't affect overall protein synthesis. Cells were pre-incubated with HF with or without proline for 4 hours, and ^35S-methionine and HF with or without proline was added. 24 hours later, conditioned medium and total cell lysate was harvested. New production of Type I procollagen was measured in conditioned medium by Western blot, and bands quantitated using Image J quantitation software. The original blot is shown in FIG. 27; total protein synthesis was measured as TCA-precipitable ^35S in a scintillation counter. Error bars reflect standard deviation of triplicate determinations.
# FIG. 33. Proline rescues HF-suppression of ECM protein production. MEFs were incubated for 4 hours in HF with or without 2 mM Pro, to measure new collagen production in conditioned medium (cells were washed into fresh DMEM/0.2% FBS with fresh HF and proline re-added, and either conditioned medium (for Type I procollagen) or total cell lysate (for fibronectin, […]) harvested twenty four hours later. Protein levels were assayed by Western blot.
# Q-PCR was performed using the Roche LightCycle UPR system, using the following primers and probes: […]
smiles,measurement,setting,value
"O=C(CC1NCCCC1O)Cn1cnc2cc(Br)c(Cl)cc2c1=O (racemic) [HF, halofuginone]",IFNγ expression in human T cells,[1],essentially unaffected
same,percentage of human T cells expressing IL-17 and amount of IL-17 produced,[1],greatly reduced
same,"mRNA levels of ColIA1, ColIA2, and S100A4","[2]; 50 nM HF, 4 or 24 hours",inhibited mRNA levels
same,CHOP mRNA expression,"[2]; 50 nM HF, 4 hours",stimulated
same,reversal of HF effects on ECM genes and proteins by proline,[2]; 2 mM proline,reversed by the addition of 2 mM proline
same,production of fibronectin,[2]; 24 hours,dramatically inhibited
same,production of secreted Type I procollagen protein,[2]; 24 hours,dramatically inhibited

# Reference: patent US20120058133A1, “INHIBITION OF TRNA SYNTHETASES AND THERAPEUTIC APPLICATIONS THEREOF” (President and Fellows of Harvard College, priority 2009, published 2012)
